Assay [1] relates to Acanthamoeba polyphaga (A. polyphaga). Description: Growth inhibition of Acanthamoeba polyphaga by solid luliconazole crystals (1 mg added to culture). It is filed as cell-based. As to conditions: 1 mg of solid crystals added after 48 hours preculture; 25° C., 72 hours. On the procedure:
The anti-Acanthamoeba activities of the crystals in Examples 2 to 6 were examined based on the method in Example 1. In other words, Acanthamoeba polyphaga (A. polyphaga) of which the number of the amoebae was 50,000 with respect to 4.5 mL of ATCC712 medium was dispersed and seeded in 500 μL of medium, and was preliminarily cultured at 25° C. for 48 hours. To the resultant, 1 mg of each of the crystals in Examples 2 to 6 was added to prepare a control and samples. The culture was further continued at 25° C. for 72 hours, and the number of the amoebae in the culture liquid was measured by a Neubauer counting chamber. The control, to which nothing was added, and in which the amoebae were cultured, was used. Growth inhibition rates were calculated from the counted values according to an expression of [(the number of amoebae in control−the number of amoebae in each sample)/the number of amoebae in control]×100.

The subject of assay [2] is Acanthamoeba polyphaga (A. polyphaga; clinical isolate). Description: Growth inhibition of Acanthamoeba polyphaga by luliconazole in solution (methanol specimen), amoebae counted in a Neubauer counting chamber. It is filed as cell-based. The note with it: 25° C., 72 hours. On the procedure:
Acanthamoeba polyphaga (A. polyphaga; clinical isolate) was cultured in an ATCC712 medium (hereinafter simply referred to as medium) at 25° C. for 1 week, and the medium was adjusted by adding a medium so that the number of the amoebae was 100,000 amoebae/mL, to make a preculture liquid. A control and samples were prepared by adding 4.3 mL of medium, 200 μL of specimen, and 500 μL of preculture liquid. The amoebae were cultured at 25° C. for 72 hours, and the number of the amoebae was counted by a Neubauer counting chamber.
Luliconazole used in the specimen was obtained as described below. A compound was synthesized according to a method described in Japanese Patent Laid-Open No. 60-218387, an ethyl acetate/normal hexane mixture (5:1) was added, and the resultant was warmed at 60° C. and dissolved under stirring. Crystals were precipitated while stirring the resultant in cooling water at 5° C., were filtered, and dried by sending air at 40° C. for 48 hours to obtain the crystals.
The specimen was prepared using methanol as a solvent so that the final concentration of luliconazole was 0, 5, 10, 20, or 40 μg/mL. The specimen in which the final concentration of luliconazole was 0 μg/mL was used as the control.
Growth inhibition rates were determined based on [(the number of amoebae in control−the number of amoebae in each sample)/the number of amoebae in control]×100. MIC and IC50 were calculated based on the growth inhibition rates by a usual method. MIC was 40 μg/mL, and IC50 was 20 μg/mL.

Where [3] appears, read: calculated from growth inhibition rates.

In brackets after ≈: the same amount, converted by molar mass.

Take `N#C/C(=C1/SC[C@@H](c2ccc(Cl)cc2Cl)S1)n1ccnc1` [Crystal in Example 2, luliconazole]: the “Growth Inhibition Rate (%)” value in assay [1] is on record as 66.7%. `N#C/C(=C1/SC[C@@H](c2ccc(Cl)cc2Cl)S1)n1ccnc1` [Crystal in Example 3, luliconazole]: the “Growth Inhibition Rate (%)” value in assay [1] was determined as 25.9%.

Consider `N#C/C(=C1/SC[C@@H](c2ccc(Cl)cc2Cl)S1)n1ccnc1` [Crystal in Example 4, luliconazole], for which the “Growth Inhibition Rate (%)” value in assay [1] was found to be 69.6%. With `N#C/C(=C1/SC[C@@H](c2ccc(Cl)cc2Cl)S1)n1ccnc1` [Crystal in Example 5, luliconazole], the “Growth Inhibition Rate (%)” value in assay [1] is listed as 77.0%. Consider `N#C/C(=C1/SC[C@@H](c2ccc(Cl)cc2Cl)S1)n1ccnc1` [Crystal in Example 6, luliconazole], for which the “Growth Inhibition Rate (%)” value in assay [1] stood at 54.8%. By IC50 is commonly meant the point on the concentration scale where inhibition reaches its midpoint. The term MIC denotes the smallest concentration in the dilution series that meets the test's criterion for growth inhibition. One may read the inhibition as the percentage by which the read-out fell short of the control. In the case of `N#C/C(=C1/SC[C@@H](c2ccc(Cl)cc2Cl)S1)n1ccnc1` [luliconazole], in assay [2] (setting [3]), the IC50 is 20 µg/mL (≈ 56.5 µM) and the MIC was 40 µg/mL (≈ 113 µM). In assay [2] (luliconazole final concentration 5 μg/mL, ATCC712 medium, read-out: Inhibition Rate (%)), the inhibition at 5 µg/mL amounted to 20%. In addition, the inhibition at 10 µg/mL in assay [2] (luliconazole final concentration 10 μg/mL, ATCC712 medium, read-out: Inhibition Rate (%)) stood at 40%. Further, the inhibition at 20 µg/mL in assay [2] (luliconazole final concentration 20 μg/mL, ATCC712 medium, read-out: Inhibition Rate (%)) was found to be 50%. In assay [2] (luliconazole final concentration 40 μg/mL, ATCC712 medium, read-out: Inhibition Rate (%)), the inhibition at 40 µg/mL was determined as 95%.

(Values after patent US20200268716A1, “LULICONAZOLE AS ANTI-ACANTHAMOEBA AGENT AND METHOD FOR PRODUCING THE SAME” (Pola Pharma Inc., priority 2015, published 2020).)
